Test results: patent US9845323B2, “2-(1,3,4-oxadiazol-2-yl)-7-oxo-1,6-diazabicyclo[3.2.1 ]octane derivatives and their use as antibacterial agents” (WOCKHARDT LIMITED, priority 2014, dated 2017)
≈ marks a conversion by molar mass, not a printed value.

Legend:
[1] = tested on: E. coli NCTC 13353 (CTX-M15, OXA-1); test: Agar dilution MIC (CLSI), compound alone; format: cell-based
Protocol: (§1) The biological activity of representative compounds according to the invention against various bacterial strains was investigated. In a typical study, overnight grown bacterial cultures were diluted appropriately and inoculated on the agar media containing doubling dilutions of the test compounds. Observations for growth or no growth was performed after 16-20 hours of incubation at 35±2° C. in the ambient air. The overall procedure was performed as per Clinical and Laboratory Standards Institute (CLSI) recommendations, (Clinical and Laboratory Standards Institute (CLSI), Performance Standards for Antimicrobial Susceptibility Testing, 20th Informational Supplement, M 07-A9, Volume 32, No. 2, 2012). Molten Mueller Hinton Agar (BD, USA) containing serial dilutions of each antibacterial agent were poured on to the plates and allowed to solidify. Appropriate suspensions from the freshly grown cultures were prepared in normal saline so that about 10^4 CFU/spot of the organism was delivered on to the drug containing agar plates using automated multipoint inoculator (Mast, UK). The plates were incubated in Biochemical oxygen demand (BOD) incubator at 37° C. for 18 hours and then examined for growth.

P. aeruginosa 2779 = test: Agar dilution MIC (CLSI), compound alone; format: cell-based; settings: Pseudomonas aeruginosa
Protocol: as §1

C. frundaii 58 MP = test: Agar dilution MIC (CLSI), compound alone; format: cell-based
Protocol: as §1

E. cloacae M 20 = test: Agar dilution MIC (CLSI), compound alone; format: cell-based; settings: Enterobacter cloacae, M20
Protocol: as §1

E. coli NCTC 13352 = test: Agar dilution MIC (CLSI), compound alone; format: cell-based; settings: Escherichia coli, NCTC13352
Protocol: as §1

[2] = tested on: K. pneumoniae H521 (KPC, SHV, TEM); test: Agar dilution MIC (CLSI), compound alone; format: cell-based
Protocol: as §1

P. aeruginosa PAO1 = test: Agar dilution MIC (CLSI), compound alone; format: cell-based; settings: Pseudomonas aeruginosa
Protocol: as §1

P. aeruginosa R 20 = test: Agar dilution MIC (CLSI), compound alone; format: cell-based; settings: Pseudomonas aeruginosa, R20
Protocol: as §1

E. coli M 50 = test: Agar dilution MIC (CLSI), compound alone; format: cell-based; settings: Escherichia coli, M50
Protocol: as §1

P. aeruginosa ATCC 27853 = test: Agar dilution MIC (CLSI), compound alone; format: cell-based; settings: Pseudomonas aeruginosa, ATCC27853
Protocol: as §1

E. coli NCTC 13351 = test: Agar dilution MIC (CLSI), compound alone; format: cell-based; settings: Escherichia coli, NCTC13351
Protocol: as §1

K. pneumoniae S 21 = test: Agar dilution MIC (CLSI), compound alone; format: cell-based; settings: Klebsiella pneumoniae, S21
Protocol: as §1

K. pneumoniae B 77 = test: Agar dilution MIC (CLSI), compound alone; format: cell-based; settings: Klebsiella pneumoniae, B77
Protocol: as §1

E. coli M 49 = test: Agar dilution MIC (CLSI), compound alone; format: cell-based; settings: Escherichia coli, M49
Protocol: as §1

K. pneumoniae H 525 = test: Agar dilution MIC (CLSI), compound alone; format: cell-based; settings: Klebsiella pneumoniae, H525
Protocol: as §1

E. coli 7 MP = test: Agar dilution MIC (CLSI), compound alone; format: cell-based; settings: Escherichia coli
Protocol: as §1

[3] = tested on: K. Pneomoniae S48 (NDM, SHV, TEM); test: Agar dilution MIC (CLSI), compound alone; format: cell-based, K. pneumoniae; settings: Klebsiella pneumoniae
Protocol: as §1

[4] = molecular target: T1, Class D beta-lactamase OXA 23 (A baumannii NCTC 13301) (Acinetobacter baumannii, UniProt Q9L4P2); test: Beta-lactamase enzyme inhibition (Nitrocefin, crude enzyme); format: biochemical; settings: A baumannii NCTC 13301 (OXA 23), Nitrocefin 100 μM
T1 construct: preincubated mixture of crude enzyme and the compounds; endogenous in cells; host or cells: A. baumannii NCTC 13301 (crude enzyme preparation)
T1 sequence (Q9L4P2 18-273): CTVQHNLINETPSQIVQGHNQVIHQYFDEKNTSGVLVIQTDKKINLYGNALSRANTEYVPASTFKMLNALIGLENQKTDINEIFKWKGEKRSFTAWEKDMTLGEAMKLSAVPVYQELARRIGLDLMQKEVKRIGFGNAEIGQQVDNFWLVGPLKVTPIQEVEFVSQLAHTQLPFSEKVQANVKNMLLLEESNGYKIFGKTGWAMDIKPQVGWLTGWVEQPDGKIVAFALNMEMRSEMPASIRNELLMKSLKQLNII
Protocol: (§2) Absorbance was measured at 485 nm by UV-spectrophotometer. The IC50 was calculated by plotting absorbance against concentration through Sigmoidal dose response curve using Graph Pad software.

[5] = tested on: Class C beta-lactamase CMY/DHA (E. coli M50); test: as above; format: biochemical; settings: Nitrocefin 100 μM
Protocol: as §2

[6] = molecular target: Class A beta-lactamase SHV 18 (K. pneumoniae ATCC 700603) (Klebsiella pneumoniae, UniProt P0AD64); test: as above; format: biochemical; settings: read-out: Beta-lactamase enzyme inhibition IC50, K. pneumoniae ATCC 700603 (SHV 18), Nitrocefin 100 μM
Class A beta-lactamase SHV 18 (K. pneumoniae ATCC 700603), sequence (P0AD64 22-286 limits assumed): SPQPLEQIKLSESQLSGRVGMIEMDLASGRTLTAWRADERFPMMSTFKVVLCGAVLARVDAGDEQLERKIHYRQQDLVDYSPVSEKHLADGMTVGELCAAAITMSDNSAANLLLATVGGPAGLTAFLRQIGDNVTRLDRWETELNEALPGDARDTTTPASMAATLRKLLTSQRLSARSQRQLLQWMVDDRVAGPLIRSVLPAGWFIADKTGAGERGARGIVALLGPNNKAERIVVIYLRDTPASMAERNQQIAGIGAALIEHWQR
Protocol: as §2

[7] = tested on: Multi Drug Resistant (MDR) Gram-negative bacterial strains; test: Antibacterial activity alone; format: cell-based; settings: compounds used alone; compared with standards (imipenem, ceftazidime) or avibactam
Protocol: as §1

`O=C1N2C[C@@H](CC[C@H]2c2nnc(Cc3ccccc3)o2)N1OS(=O)(=O)O` [Example 5, (2S,5R)-sulfuric acid mono-[2-(5-benzyl-[1,3,4]-oxadiazol-2-yl)-7-oxo-1,6-diaza-bicyclo[3.2.1]oct-6-yl] ester] was tested, and the MIC ([1]; E. coli NCTC 13353, Table 3) was 8 µg/mL (≈ 21 µM), the MIC ([1]; Escherichia coli, NCTC13353) was 8 µg/mL (≈ 21 µM) and the MIC (P. aeruginosa 2779) was over 32 µg/mL. For the same molecule, the MIC (C. frundaii 58 MP) was over 32 µg/mL, the MIC (E. cloacae M 20) was over 32 µg/mL and the MIC (E. coli NCTC 13352) was 16 µg/mL (≈ 42.1 µM). The MIC ([2]; K. pneumoniae H 521, Table 3) was 32 µg/mL (≈ 84.1 µM), the MIC ([2]; Klebsiella pneumoniae) was 32 µg/mL (≈ 84.1 µM) and the MIC (P. aeruginosa PAO1) was over 32 µg/mL. For the same molecule, the MIC (P. aeruginosa R 20) was over 32 µg/mL, the MIC (E. coli M 50) was 16 µg/mL (≈ 42.1 µM) and the MIC (P. aeruginosa ATCC 27853) was over 32 µg/mL. The MIC (E. coli NCTC 13351) was 16 µg/mL (≈ 42.1 µM), the MIC (K. pneumoniae S 21) was over 32 µg/mL and the MIC (K. pneumoniae B 77) was over 32 µg/mL. The MIC (E. coli M 49) was over 32 µg/mL, the MIC (K. pneumoniae H 525) was 16 µg/mL (≈ 42.1 µM) and the MIC (E. coli 7 MP) was 32 µg/mL (≈ 84.1 µM). It also gave an MIC [3] of 8 µg/mL (≈ 21 µM), an IC50 [4] of 280 nM and an IC50 [5] of 6 nM. For the same molecule, the IC50 [6] was 33 nM and the “Antibacterial activity (MIC values) in words” value [7] was “exhibited antibacterial activity in comparison to avibactam”.
